Type in all cases: biochemical
The target in one assay is T1, AurA (Homo sapiens, UniProt O14965).
T1 construct: purchased Caliper Life Sciences
T1 sequence (O14965 1-403): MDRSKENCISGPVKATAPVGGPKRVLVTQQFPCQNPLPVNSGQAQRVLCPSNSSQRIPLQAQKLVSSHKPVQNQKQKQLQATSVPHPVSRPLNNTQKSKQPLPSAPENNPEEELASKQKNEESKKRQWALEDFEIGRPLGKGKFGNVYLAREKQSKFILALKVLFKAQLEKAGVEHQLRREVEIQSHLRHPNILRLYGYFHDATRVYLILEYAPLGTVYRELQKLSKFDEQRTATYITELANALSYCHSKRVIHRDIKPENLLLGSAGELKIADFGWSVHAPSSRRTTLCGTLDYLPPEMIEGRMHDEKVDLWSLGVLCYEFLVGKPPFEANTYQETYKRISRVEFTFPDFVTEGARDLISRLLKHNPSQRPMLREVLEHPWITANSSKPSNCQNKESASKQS
Kind of assay: Desktop Profiler kinase panel, AurA. The settings on record: for inhibition at 1 µM: 1 micromolar concentration of the compound; for inhibition at 10 µM: 10 micromolar concentration of the compound, read-out: Percent Inhibition AurA. On the procedure:
(§1) The Aurora assays described here are performed on two Caliper Life Sciences systems: the LC3000 and the Desktop Profiler. These provide data on enzyme activity via measurement of the relative amounts of phosphorylated or unphosphorylated fluorescently labelled substrate peptide at the end of an enzymatic reaction. These different states of peptide are resolved by applying a potential difference across the sample. The presence of the charged phosphate group on the product (as opposed to the substrate) causes a different peptide mobility between the two peptides. This is visualized by excitation of the fluorescent label on the substrate and product peptides and represented as peaks within the analysis software.
(§2) The Desktop Profiler utilizes the same principle as the LC3000 for calculating percentage conversion of a substrate to product. Caliper Life Sciences provides proprietary flash frozen pre-made 384 well plates containing selected kinases. Each column in the 384 well plate contains a particular selected kinase. A second plate, the ‘substrate plate’ contains a mix of fluorescently labeled peptide substrate and ATP. These are arranged in columns so that transfer for substrate plate to enzyme plate provides the correct enzyme with the correct substrate/ATP concentration. Compounds are added to a thawed enzyme plate in the desired format, in single concentrations. Reactions are initiated by transfer of the substrate/ATP mix from the substrate plate. The enzyme plate is incubated for 90 mins at 25 C. The reaction is stopped by addition of 70 ul of Stop Buffer (100 mM HEPES pH 7.5, 0.015% Brij-35, 10 mM EDTA (Sigma, E7889)).
(§3) Reading of the plate in the Profiler is identical to the LC3000, and the ratio between substrate and product peaks provides the activity of the enzyme in that well. This is best represented by a plate heat map which colors each well by percent inhibition as compared to positive and negative controls (no inhibitors and no ATP respectively).
(§4) In the following Tables 3a-4-b, which show the results of the desktop profiler measurements, “+” means 50-70% inhibition, “++” means 70-90% inhibition, and “+++” means >90% inhibition. The enzymes tested for profiling were ABL, AKT1, AKT2, AurA, CHK1, CHK2, CK1d, Erk1, Erk2, FYN, GSK3b, INSR, LCK, LYN, MAPKAPK2, MET, MSK1, p38a, PKA, PKCz, PKD2, PRAK, RSK1 and SRC.

A further assay concerns the target T2, CHK2 (Homo sapiens, UniProt O96017).
T2 construct: purchased Caliper Life Sciences
Kind of assay: Desktop Profiler kinase panel, CHK2. The settings on record: for inhibition at 10 µM: 10 micromolar concentration of the compound, read-out: Percent Inhibition CHK2. The method, then: as §1, §2, §3, §4

Another assay deals with T3, FYN (Homo sapiens, UniProt P06241).
T3 construct: purchased Caliper Life Sciences
T3 sequence (P06241 whole entry, species assumed): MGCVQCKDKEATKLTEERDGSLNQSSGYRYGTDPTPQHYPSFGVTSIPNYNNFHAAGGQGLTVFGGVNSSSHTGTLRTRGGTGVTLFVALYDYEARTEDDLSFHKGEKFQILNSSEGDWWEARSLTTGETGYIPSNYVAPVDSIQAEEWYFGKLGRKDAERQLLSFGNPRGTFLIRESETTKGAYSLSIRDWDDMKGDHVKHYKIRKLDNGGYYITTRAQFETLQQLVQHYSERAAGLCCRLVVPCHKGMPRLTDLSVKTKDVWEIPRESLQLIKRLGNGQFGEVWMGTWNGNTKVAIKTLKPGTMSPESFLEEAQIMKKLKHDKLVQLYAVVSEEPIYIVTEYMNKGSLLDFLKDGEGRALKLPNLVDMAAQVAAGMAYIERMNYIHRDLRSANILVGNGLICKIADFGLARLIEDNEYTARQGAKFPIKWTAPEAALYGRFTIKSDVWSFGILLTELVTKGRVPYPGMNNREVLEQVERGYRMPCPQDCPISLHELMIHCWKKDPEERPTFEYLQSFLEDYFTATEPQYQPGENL
The experiment in a line: Desktop Profiler kinase panel, FYN. The settings on record: for inhibition at 1 µM: 1 micromolar concentration of the compound; for inhibition at 10 µM: 10 micromolar concentration of the compound, read-out: Percent Inhibition FYN. The method, then:
as §1, §2, §3, §4

A further assay addresses T4, LYN (Homo sapiens, UniProt P07948).
T4 construct: purchased Caliper Life Sciences
The experiment in a line: Desktop Profiler kinase panel, LYN. The settings on record: for inhibition at 1 µM: 1 micromolar concentration of the compound; for inhibition at 10 µM: 10 micromolar concentration of the compound, read-out: Percent Inhibition LYN. The method, then:
as §1, §2, §3, §4

A further assay addresses T5, SRC (Homo sapiens, UniProt P12931).
T5 construct: purchased Caliper Life Sciences
Kind of assay: Desktop Profiler kinase panel, SRC. The note with it: for inhibition at 1 µM: 1 micromolar concentration of the compound; for inhibition at 10 µM: 10 micromolar concentration of the compound, read-out: Percent Inhibition SRC. The method, then:
as §1, §2, §3, §4

In another assay the target is T6, GST-Aurora A (Homo sapiens, UniProt O14965).
T6 construct: N-terminal GST fusion with full length Aurora A (1-403 amino acids); purchased Carna Biosciences 05-101
T6 sequence (O14965 1-403): T1 sequence (O14965 1-403)
The experiment in a line: Aurora A IC50, Caliper LC3000 mobility shift assay. The note with it: LC3000 method; 15 uM ATP (the KM value); read-out: Aurora Kinase A Activity (IC50). In short, it runs like this: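 GST-tagged full-length Aurora A (0.067 ng/ul) with 15 uM ATP (KM) and 1 uM FITC-LRRASLG peptide in 100 mM HEPES pH 7.5, 1 mM MgCl2, 1 mM DTT, Brij-35; 90 min at 25 C, EDTA stop. Off-chip mobility shift read of substrate-to-product conversion; IC50 from sigmoidal dose-response.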

The target in the next assay is T7, ABL (Homo sapiens, UniProt P00519).
T7 construct: purchased Caliper Life Sciences
T7 sequence (P00519 whole entry, species assumed): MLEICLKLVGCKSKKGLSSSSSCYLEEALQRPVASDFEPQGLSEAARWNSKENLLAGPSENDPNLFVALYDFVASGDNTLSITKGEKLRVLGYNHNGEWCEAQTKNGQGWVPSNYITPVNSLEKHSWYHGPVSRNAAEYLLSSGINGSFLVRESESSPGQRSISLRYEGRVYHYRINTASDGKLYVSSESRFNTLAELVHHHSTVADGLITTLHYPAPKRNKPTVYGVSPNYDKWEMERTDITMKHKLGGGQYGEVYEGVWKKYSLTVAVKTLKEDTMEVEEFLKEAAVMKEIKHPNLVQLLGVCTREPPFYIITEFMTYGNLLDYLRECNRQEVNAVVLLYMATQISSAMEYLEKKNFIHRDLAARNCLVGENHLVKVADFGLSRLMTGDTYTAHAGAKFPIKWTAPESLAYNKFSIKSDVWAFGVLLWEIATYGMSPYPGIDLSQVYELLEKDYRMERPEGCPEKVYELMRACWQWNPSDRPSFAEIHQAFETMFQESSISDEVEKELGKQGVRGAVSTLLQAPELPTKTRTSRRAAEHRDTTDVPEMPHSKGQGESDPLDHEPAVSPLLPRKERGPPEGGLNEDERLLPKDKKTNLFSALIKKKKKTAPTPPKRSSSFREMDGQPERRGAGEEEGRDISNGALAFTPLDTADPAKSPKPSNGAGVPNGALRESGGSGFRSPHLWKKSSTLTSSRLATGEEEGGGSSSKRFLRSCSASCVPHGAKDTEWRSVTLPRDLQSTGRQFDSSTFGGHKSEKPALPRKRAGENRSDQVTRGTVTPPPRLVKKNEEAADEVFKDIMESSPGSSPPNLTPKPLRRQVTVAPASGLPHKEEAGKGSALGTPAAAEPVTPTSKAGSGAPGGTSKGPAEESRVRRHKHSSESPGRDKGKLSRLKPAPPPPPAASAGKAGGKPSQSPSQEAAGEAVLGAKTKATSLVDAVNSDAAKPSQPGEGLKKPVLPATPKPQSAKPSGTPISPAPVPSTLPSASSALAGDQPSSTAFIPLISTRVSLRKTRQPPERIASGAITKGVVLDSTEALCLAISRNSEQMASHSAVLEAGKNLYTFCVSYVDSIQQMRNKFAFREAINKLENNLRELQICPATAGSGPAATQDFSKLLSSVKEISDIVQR
The experiment in a line: Desktop Profiler kinase panel, ABL. The settings on record: for inhibition at 1 µM: 1 micromolar concentration of the compound; for inhibition at 10 µM: 10 micromolar concentration of the compound, read-out: Percent Inhibition ABL. The method, then:
as §1, §2, §3, §4

In a further assay the target is T8, LCK (Homo sapiens, UniProt P06239).
T8 construct: purchased Caliper Life Sciences
T8 sequence (P06239 whole entry, species assumed): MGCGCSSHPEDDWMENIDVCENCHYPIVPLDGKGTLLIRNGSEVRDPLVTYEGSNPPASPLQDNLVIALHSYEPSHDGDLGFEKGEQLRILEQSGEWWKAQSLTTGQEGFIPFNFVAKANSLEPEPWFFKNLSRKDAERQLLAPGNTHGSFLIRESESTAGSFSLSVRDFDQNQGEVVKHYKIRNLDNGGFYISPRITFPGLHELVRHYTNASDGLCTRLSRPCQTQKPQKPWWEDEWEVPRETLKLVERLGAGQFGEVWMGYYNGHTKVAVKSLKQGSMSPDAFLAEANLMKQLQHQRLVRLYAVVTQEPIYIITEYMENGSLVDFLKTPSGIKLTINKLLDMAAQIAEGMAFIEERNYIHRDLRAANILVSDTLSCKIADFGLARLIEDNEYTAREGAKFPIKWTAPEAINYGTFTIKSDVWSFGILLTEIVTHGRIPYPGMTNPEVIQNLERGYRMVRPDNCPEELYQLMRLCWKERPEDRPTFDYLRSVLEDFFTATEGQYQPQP
Kind of assay: Desktop Profiler kinase panel, LCK. The note with it: for inhibition at 10 µM: 10 micromolar concentration of the compound, read-out: Percent Inhibition LCK. On the procedure: as §1, §2, §3, §4

The next assay deals with T9, CK1d (Homo sapiens, UniProt P48730).
T9 construct: purchased Caliper Life Sciences
T9 sequence (P48730 whole entry): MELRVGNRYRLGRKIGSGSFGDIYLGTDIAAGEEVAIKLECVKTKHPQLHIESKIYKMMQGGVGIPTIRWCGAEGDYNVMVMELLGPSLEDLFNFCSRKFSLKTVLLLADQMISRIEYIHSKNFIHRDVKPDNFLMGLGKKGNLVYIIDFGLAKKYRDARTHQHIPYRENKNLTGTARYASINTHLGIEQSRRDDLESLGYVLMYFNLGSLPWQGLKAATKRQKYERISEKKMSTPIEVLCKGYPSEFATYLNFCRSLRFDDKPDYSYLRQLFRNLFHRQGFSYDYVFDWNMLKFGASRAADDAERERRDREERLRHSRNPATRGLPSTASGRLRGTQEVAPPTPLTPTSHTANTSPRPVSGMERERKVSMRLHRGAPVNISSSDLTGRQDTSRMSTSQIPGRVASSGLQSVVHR
Kind of assay: Desktop Profiler kinase panel, CK1d. The note with it: 10 micromolar concentration of the compound; read-out: Percent Inhibition CK1d. The method, then:
as §1, §2, §3, §4

The next assay deals with T10, GSK3b (Homo sapiens, UniProt P49841).
T10 construct: purchased Caliper Life Sciences
T10 sequence (P49841 whole entry, species assumed): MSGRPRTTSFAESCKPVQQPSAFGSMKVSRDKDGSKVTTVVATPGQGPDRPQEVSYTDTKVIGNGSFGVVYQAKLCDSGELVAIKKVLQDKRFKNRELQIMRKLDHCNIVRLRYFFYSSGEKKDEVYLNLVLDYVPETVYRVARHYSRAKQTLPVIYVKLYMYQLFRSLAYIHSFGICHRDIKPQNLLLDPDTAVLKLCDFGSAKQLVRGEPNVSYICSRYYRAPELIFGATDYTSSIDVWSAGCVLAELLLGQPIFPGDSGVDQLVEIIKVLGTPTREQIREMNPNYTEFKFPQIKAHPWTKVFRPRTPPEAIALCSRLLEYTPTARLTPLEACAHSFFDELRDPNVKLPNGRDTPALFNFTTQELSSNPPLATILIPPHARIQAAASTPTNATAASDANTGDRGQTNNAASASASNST
The experiment in a line: Desktop Profiler kinase panel, GSK3b. The note with it: 10 micromolar concentration of the compound; read-out: Percent Inhibition GSK3b. On the procedure:
as §1, §2, §3, §4

Setting [1] is: 1 micromolar concentration of the compound.

A value given as a limit tells only on which side of the number the result lay.

The values that follow come from patent publication US8735584B2 (Merck Patent GmbH, priority 2008, dated 2014).

T2 sequence (O96017 whole entry, species assumed): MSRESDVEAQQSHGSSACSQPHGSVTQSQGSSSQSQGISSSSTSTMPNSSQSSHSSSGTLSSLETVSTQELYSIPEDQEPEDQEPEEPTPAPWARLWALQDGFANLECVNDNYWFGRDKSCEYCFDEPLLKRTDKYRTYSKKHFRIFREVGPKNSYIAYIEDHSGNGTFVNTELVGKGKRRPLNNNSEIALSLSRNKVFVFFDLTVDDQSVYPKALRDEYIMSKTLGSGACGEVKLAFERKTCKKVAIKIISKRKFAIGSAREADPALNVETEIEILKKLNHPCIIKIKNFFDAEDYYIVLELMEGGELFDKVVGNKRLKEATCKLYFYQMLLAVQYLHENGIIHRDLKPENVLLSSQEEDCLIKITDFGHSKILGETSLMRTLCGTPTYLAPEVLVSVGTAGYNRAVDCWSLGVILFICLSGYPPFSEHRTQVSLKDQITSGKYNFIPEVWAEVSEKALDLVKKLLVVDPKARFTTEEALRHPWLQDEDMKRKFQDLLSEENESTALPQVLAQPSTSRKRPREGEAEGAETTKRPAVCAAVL
T5 sequence (P12931 whole entry, species assumed): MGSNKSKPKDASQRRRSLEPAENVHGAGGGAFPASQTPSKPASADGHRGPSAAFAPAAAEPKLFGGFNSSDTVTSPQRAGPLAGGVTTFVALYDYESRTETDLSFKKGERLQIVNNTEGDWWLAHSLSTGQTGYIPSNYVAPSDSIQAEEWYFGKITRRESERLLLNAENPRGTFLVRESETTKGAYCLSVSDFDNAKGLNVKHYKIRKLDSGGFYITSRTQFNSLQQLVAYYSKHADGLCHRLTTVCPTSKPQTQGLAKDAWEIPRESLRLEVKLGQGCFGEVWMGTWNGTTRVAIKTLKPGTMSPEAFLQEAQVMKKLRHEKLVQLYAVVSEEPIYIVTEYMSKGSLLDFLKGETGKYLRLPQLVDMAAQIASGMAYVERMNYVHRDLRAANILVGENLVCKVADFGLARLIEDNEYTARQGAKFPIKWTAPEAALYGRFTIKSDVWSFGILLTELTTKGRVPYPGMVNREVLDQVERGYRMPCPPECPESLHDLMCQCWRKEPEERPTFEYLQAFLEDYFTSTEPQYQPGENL
T4 sequence (P07948 whole entry, species assumed): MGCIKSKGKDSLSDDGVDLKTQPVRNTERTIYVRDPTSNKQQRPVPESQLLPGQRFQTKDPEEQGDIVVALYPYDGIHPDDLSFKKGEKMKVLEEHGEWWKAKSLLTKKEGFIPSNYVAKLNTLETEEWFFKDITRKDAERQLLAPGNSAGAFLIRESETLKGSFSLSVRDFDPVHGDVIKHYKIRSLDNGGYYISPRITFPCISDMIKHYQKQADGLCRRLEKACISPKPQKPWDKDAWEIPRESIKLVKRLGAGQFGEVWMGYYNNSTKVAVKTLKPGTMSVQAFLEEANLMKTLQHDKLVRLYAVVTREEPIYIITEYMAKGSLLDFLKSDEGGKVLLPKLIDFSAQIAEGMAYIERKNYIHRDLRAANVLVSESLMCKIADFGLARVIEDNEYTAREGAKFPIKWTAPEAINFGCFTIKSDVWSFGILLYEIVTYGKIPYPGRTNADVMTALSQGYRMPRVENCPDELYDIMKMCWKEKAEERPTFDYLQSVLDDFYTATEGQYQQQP

The term inhibition denotes how much of the control response was suppressed. What is called IC50 is the midpoint of a concentration-inhibition curve. Take `COc1ccccc1Nc1ccnc2[nH]c(=O)c3ccccc3c12` [Example 114, 1-(2-Methoxy-phenylamino)-5H-benzo[c][1,8]naphthyridin-6-one]: the inhibition at 1 µM against AurA, against FYN, at LYN, on SRC and against ABL was 70 to 90% in each case. In addition, the inhibition at 10 µM on AurA was > 90%; at CHK2, 50 to 70%; on FYN, 50 to 70%; at LYN, > 90%; on SRC it was > 90%; on ABL, > 90%. Moreover, the inhibition at 10 µM on LCK was 50 to 70%. Also, the IC50 on GST-Aurora A is > 100 nM.
In the case of `O=C(Nc1ccc(Nc2ccnc3[nH]c(=O)c4ccccc4c23)cc1)c1ccccc1` [Example 120, N-[4-(6-Oxo-5,6-dihydro-benzo[c][1,8]naphthyridin-1-ylamino)-phenyl]-benzamide], the results for the inhibition at 1 µM against AurA, against CHK2 (setting [1]) and at LYN were > 90%, > 90% and 50 to 70%, respectively. The inhibition at 10 µM at AurA is > 90%; at CHK2 it was > 90%; at FYN, 50 to 70%; on LYN, 70 to 90%; at SRC it was 50 to 70%; at CK1d, 50 to 70%. For the same compound, the 50% inhibitory concentration (IC50) at GST-Aurora A was < 11 nM.
As for `COc1ccc(Oc2ccnc3[nH]c(=O)c4ccccc4c23)cc1` [Example 125, 1-(4-Methoxy-phenoxy)-5H-benzo[c][1,8]naphthyridin-6-one], the inhibition at 1 µM against FYN and on ABL was 70 to 90% in each case.
For the compound `O=c1[nH]c2ncccc2c2cc(N3CCOCC3)ccc12` [Example 26, 9-Morpholin-4-yl-5H-benzo[c][1,8]naphthyridin-6-one], the results for the inhibition at 10 µM on AurA and at CHK2 were 70 to 90% and 50 to 70%, respectively.
`COc1ccccc1Nc1ccc2c(=O)[nH]c3ncccc3c2c1` [Example 30, 9-(2-Methoxy-phenylamino)-5H-benzo[c][1,8]naphthyridin-6-one] registered an inhibition at 1 µM at AurA of 70 to 90%. Further, the inhibition at 10 µM was > 90% on AurA; 50 to 70% at FYN; 70 to 90% at LYN; 50 to 70% at SRC; 50 to 70% at ABL. Also, the half-maximal inhibitory concentration (IC50) at GST-Aurora A was > 100 nM.
For the compound `Clc1nc2nccc(Oc3ccccc3)c2c2ccccc12` [Example 140, 6-Chloro-1-phenoxy-benzo[c][1,8]naphthyridine], the inhibition at 10 µM on FYN, on SRC and at ABL was 50 to 70% in each case.
For `O=c1[nH]c2ncc(NCc3ccccc3)cc2c2ccccc12` [Example 13, 2-Benzylamino-5H-benzo[c][1,8]naphthyridin-6-one], the inhibition at 10 µM was > 90% on FYN; 70 to 90% at LYN; 70 to 90% at SRC; 50 to 70% on ABL; 50 to 70% on LCK.
`O=c1[nH]c2nccc(Nc3ccc(Oc4ccccc4)cc3)c2c2ccccc12` [Example 121, 1-(4-Phenoxy-phenylamino)-5H-benzo[c][1,8]naphthyridin-6-one]: the inhibition at 10 µM at AurA lay in the range of 50 to 70%; at FYN it was 70 to 90%; at LYN, 70 to 90%; on SRC, 70 to 90%; at LCK, 70 to 90%.
In turn, `COc1ccc(CCNc2ccc3c(=O)[nH]c4ncccc4c3c2)cc1` [Example 36, 9-[2-(4-Methoxy-phenyl)-ethylamino]-5H-benzo[c][1,8]naphthyridin-6-one] registered an inhibition at 1 µM on AurA of 50 to 70%. For the same compound, the inhibition at 10 µM is > 90% at AurA, 70 to 90% at CHK2 and 50 to 70% on FYN. Further, at GST-Aurora A, the IC50 is > 100 nM.
For `O=c1[nH]c2ncc(Nc3ccccc3)cc2c2ccccc12` [Example 12, 2-Phenylamino-5H-benzo[c][1,8]naphthyridin-6-one], the figures for the inhibition at 10 µM at FYN and on ABL were 50 to 70% and 70 to 90%, respectively.
Regarding `COCCNc1ccc2c(=O)[nH]c3ncccc3c2c1` [Example 27, 9-(2-Methoxy-ethylamino)-5H-benzo[c][1,8]naphthyridin-6-one], the inhibition at 10 µM at AurA is 70 to 90%; at CHK2, 50 to 70%.
On to `O=c1[nH]c2ncccc2c2cc(NCc3cccc(F)c3)ccc12` [Example 35, 9-(3-Fluoro-benzylamino)-5H-benzo[c][1,8]naphthyridin-6-one], for which the inhibition at 1 µM against AurA is > 90%. For the same compound, the IC50 at GST-Aurora A was > 100 nM.
With `Clc1nc2nccc(Nc3ccccc3)c2c2ccccc12` [Example 139, (6-Chloro-benzo[c][1,8]naphthyridin-1-yl)-phenyl-amine], the inhibition at 10 µM at AurA was 70 to 90%; at CHK2 it was 50 to 70%; on FYN, > 90%; at LYN it was > 90%; at SRC it was > 90%; at ABL, > 90%. On LCK, the inhibition at 10 µM is 70 to 90%. Besides, at GST-Aurora A, the IC50 is > 100 nM.
For `Clc1ccc2c(Nc3cccc(Br)c3)nc3ncccc3c2c1` [Example 59, (3-Bromo-phenyl)-(9-chloro-benzo[c][1,8]naphthyridin-6-yl)-amine], the inhibition at 10 µM on ABL and on GSK3b was 50 to 70% throughout.
As for `O=c1[nH]c2nccc(Nc3ccccc3)c2c2ccccc12` [Example 95, 1-Phenylamino-5H-benzo[c][1,8]naphthyridin-6-one], the inhibition at 1 µM against AurA was 50 to 70%; against FYN, > 90%; on SRC, > 90%; against ABL it was > 90%; against LCK (setting [1]), 50 to 70%. The inhibition at 10 µM was 70 to 90% at AurA; 50 to 70% at CHK2; > 90% at FYN; > 90% at LYN; > 90% at SRC; > 90% on ABL. At LCK, the inhibition at 10 µM was 70 to 90%.
